Numbered stars: 1 amine (or outer) side, 2 acyl side, 3 side chain; on linkers, the order of the positions; unused ones are H or OH. Square brackets hold non-standard residues; d marks the D form. Peptide text beside a SMILES is read from it. * marks the point of attachment. β3hW = N[C@H](CC(=O)O)Cc1c[nH]c2ccccc12; ACPC(1S,2S) = N[C@H]1CCC[C@@H]1C(=O)*; X1 = O=C([C@H]1CCC[C@@H]1N[*:1])[*:2]; hArg = N=C(N)NCCCC[C@H](N)C(=O)O; β3hE = N[C@@H](CCC(=O)O)CC(=O)O; β3hF = N[C@H](CC(=O)O)Cc1ccccc1; β3hK = NCCCC[C@H](N)CC(=O)O; β3hM = CSCC[C@H](N)CC(=O)O; β3hD = NC(CC(=O)O)CC(=O)O; Aib = CC(C)(N)C(=O)O
Key:
[1] = target: T1, Parathyroid hormone/parathyroid hormone-related peptide receptor (Homo sapiens, UniProt Q03431); assay: Agonist activity at human PTH1 receptor expressed in human GP2.3 cells assessed as induction of cAMP after 12 to 20 mins by luciferase reporter gene assay; assay type: functional, cell-based; conditions: read-out: EC50
T1 sequence (Q03431 whole entry): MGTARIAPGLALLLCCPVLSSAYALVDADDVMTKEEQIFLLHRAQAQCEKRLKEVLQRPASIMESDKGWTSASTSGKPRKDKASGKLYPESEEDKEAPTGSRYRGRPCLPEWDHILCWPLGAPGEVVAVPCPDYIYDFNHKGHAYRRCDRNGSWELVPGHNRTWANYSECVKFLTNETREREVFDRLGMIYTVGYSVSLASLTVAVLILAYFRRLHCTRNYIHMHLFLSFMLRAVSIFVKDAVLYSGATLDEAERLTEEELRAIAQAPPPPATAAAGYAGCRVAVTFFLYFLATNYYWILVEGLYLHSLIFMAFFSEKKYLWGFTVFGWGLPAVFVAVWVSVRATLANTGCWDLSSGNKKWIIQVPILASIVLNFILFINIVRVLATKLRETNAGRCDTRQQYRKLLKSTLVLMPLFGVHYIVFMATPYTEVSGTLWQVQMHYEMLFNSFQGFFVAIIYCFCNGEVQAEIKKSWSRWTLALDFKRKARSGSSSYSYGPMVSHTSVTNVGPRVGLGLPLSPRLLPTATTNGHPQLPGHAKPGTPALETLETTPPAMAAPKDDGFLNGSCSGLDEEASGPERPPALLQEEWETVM

[2] = target: T2, Parathyroid hormone/parathyroid hormone-related peptide receptor (Homo sapiens) (UniProt Q03431); assay: Agonist activity at human PTH1 receptor expressed in human GP2.3 cells assessed as induction of cAMP after 12 to 20 mins by luciferase reporter gene assay relative to PTH(1 to 34 residues)-NH2; assay type: functional, cell-based
T2 sequence (whole entry): T1 sequence (Q03431 whole entry)

| SMILES | EC50 [1] [nM] | fold change (FC) [2] |
| --- | --- | --- |
| CC[C@H](C)[C@H](NC(=O)[C@H](CCC(=O)O)NC(=O)C(C)(C)NC(=O)[C@@H](NC(=O)[C@H]1CCC[C@@H]1N)C(C)C)C(=O)N[C@@H](CCC(N)=O)C(=O)N[C@H]1CCC[C@@H]1C(=O)N[C@@H](CCSC)C(=O)N[C@@H](Cc1cnc[nH]1)C(=O)N[C@@H](CCC(N)=O)C(=O)N[C@@H](CCCCNC(=N)N)C(=O)N[C@@H](C)C(=O)N[C@@H](CCCCN)C(=O)N[C@@H](Cc1c[nH]c2ccccc12)C(=O)N[C@@H](CC(C)C)C(=O)N[C@@H](CC(N)=O)C(=O)N[C@@H](CO)C(=O)N[C@@H](CCSC)C(=O)N[C@@H](CCCNC(=N)N)C(=O)N[C@@H](CCCNC(=N)N)C(=O)N[C@H](C(=O)N[C@@H](CCC(=O)O)C(=O)N[C@@H](Cc1c[nH]c2ccccc12)C(=O)N[C@@H](CC(C)C)C(=O)N[C@@H](CCCNC(=N)N)C(=O)N[C@@H](CCCCN)C(=O)N[C@@H](CCCCN)C(=O)N[C@@H](CC(C)C)C(=O)N[C@@H](CCC(N)=O)C(=O)N[C@@H](CC(=O)O)C(=O)N[C@H](C(=O)N[C@@H](Cc1cnc[nH]1)C(=O)N[C@@H](CC(N)=O)C(=O)N[C@@H](Cc1ccccc1)C(N)=O)C(C)C)C(C)C ({ACPC(1S,2S)}-V[Aib]EIQ[X1]MHQ[hArg]AKWLNSMRRVEWLRKKLQDVHNF-NH2) | 0.52 | 6.3 |
| CC[C@H](C)[C@H](NC(=O)[C@H](CCC(=O)O)NC(=O)[C@H](C)NC(=O)[C@@H](NC(=O)[C@H](C)N)C(C)C)C(=O)N[C@@H](CCC(N)=O)C(=O)N[C@@H](CC(C)C)C(=O)N[C@@H](CCSC)C(=O)N[C@@H](Cc1cnc[nH]1)C(=O)N[C@@H](CCC(N)=O)C(=O)N[C@@H](CCCCNC(=N)N)C(=O)N[C@@H](C)C(=O)N[C@@H](CCCCN)C(=O)N[C@H](CC(=O)N[C@@H](CC(C)C)C(=O)N[C@@H](CC(N)=O)C(=O)N[C@@H](CO)C(=O)N[C@@H](CCSC)CC(=O)N[C@@H](CCCNC(=N)N)C(=O)N[C@@H](CCCNC(=N)N)C(=O)N[C@H](C(=O)N[C@@H](CCC(=O)O)CC(=O)N[C@@H](Cc1c[nH]c2ccccc12)C(=O)N[C@@H](CC(C)C)C(=O)N[C@@H](CCCNC(=N)N)C(=O)N[C@@H](CCCCN)CC(=O)N[C@@H](CCCCN)C(=O)N[C@@H](CC(C)C)C(=O)N[C@@H](CCC(N)=O)C(=O)N[C@@H](CC(=O)O)CC(=O)N[C@H](C(=O)N[C@@H](Cc1cnc[nH]1)C(=O)N[C@@H](CC(N)=O)C(=O)N[C@H](CC(N)=O)Cc1ccccc1)C(C)C)C(C)C)Cc1c[nH]c2ccccc12 (H-AVAEIQLMHQ[hArg]AK[β3hW]LNS[β3hM]RRV[β3hE]WLR[β3hK]KLQ[β3hD]VHN[β3hF]-NH2) | 0.44 | 5.4 |
| CC[C@H](C)[C@H](NC(=O)[C@H](CCC(=O)O)NC(=O)[C@H](C)NC(=O)[C@@H](NC(=O)[C@H](C)N)C(C)C)C(=O)N[C@@H](CCC(N)=O)C(=O)N[C@@H](CC(C)C)C(=O)N[C@@H](CCSC)C(=O)N[C@@H](Cc1cnc[nH]1)C(=O)N[C@@H](CCC(N)=O)C(=O)N[C@@H](CCCCNC(=N)N)C(=O)N[C@@H](C)C(=O)N[C@@H](CCCCN)C(=O)N[C@@H](Cc1c[nH]c2ccccc12)C(=O)N[C@@H](CC(C)C)C(=O)N[C@@H](CC(N)=O)C(=O)N[C@@H](CO)C(=O)N[C@@H](CCSC)C(=O)N[C@@H](CCCNC(=N)N)C(=O)N[C@@H](CCCNC(=N)N)C(=O)N[C@H](C(=O)N[C@@H](CCC(=O)O)C(=O)N[C@@H](Cc1c[nH]c2ccccc12)C(=O)N[C@@H](CC(C)C)C(=O)N[C@@H](CCCNC(=N)N)C(=O)N[C@@H](CCCCN)C(=O)N[C@@H](CCCCN)C(=O)N[C@@H](CC(C)C)C(=O)N[C@@H](CCC(N)=O)C(=O)N[C@@H](CC(=O)O)C(=O)N[C@H](C(=O)N[C@@H](Cc1cnc[nH]1)C(=O)N[C@@H](CC(N)=O)C(=O)N[C@@H](Cc1ccccc1)C(N)=O)C(C)C)C(C)C (H-AVAEIQLMHQ[hArg]AKWLNSMRRVEWLRKKLQDVHNF-NH2) | 0.34 | 4.2 |
| CSCC[C@@H](CC(=O)N[C@@H](CCCNC(=N)N)C(=O)N[C@@H](CCCNC(=N)N)C(=O)N[C@H](C(=O)N[C@@H](CCC(=O)O)CC(=O)N[C@@H](Cc1c[nH]c2ccccc12)C(=O)N[C@@H](CC(C)C)C(=O)N[C@@H](CCCNC(=N)N)C(=O)N[C@@H](CCCCN)CC(=O)N[C@@H](CCCCN)C(=O)N[C@@H](CC(C)C)C(=O)N[C@@H](CCC(N)=O)C(=O)N[C@@H](CC(=O)O)CC(=O)N[C@H](C(=O)N[C@@H](Cc1cnc[nH]1)C(=O)N[C@@H](CC(N)=O)C(=O)N[C@H](CC(N)=O)Cc1ccccc1)C(C)C)C(C)C)NC(=O)[C@H](CO)NC(=O)[C@H](CC(N)=O)NC(=O)[C@H](CC(C)C)NC(=O)C[C@H](Cc1c[nH]c2ccccc12)NC(=O)[C@H](CCCCN)NC(=O)[C@H](C)NC(=O)[C@H](CCCCNC(=N)N)NC(=O)[C@H](CCC(N)=O)NC(=O)[C@H](Cc1cnc[nH]1)NC(=O)[C@H](CCSC)NC(=O)[C@H]1CCC[C@@H]1NC(=O)[C@H](CCC(N)=O)NC(=O)[C@H]1CCC[C@@H]1NC(=O)[C@H](CCC(=O)O)NC(=O)C(C)(C)NC(=O)[C@@H](NC(=O)[C@H]1CCC[C@@H]1N)C(C)C ({ACPC(1S,2S)}-V[Aib]E[X1]Q[X1]MHQ[hArg]AK[β3hW]LNS[β3hM]RRV[β3hE]WLR[β3hK]KLQ[β3hD]VHN[β3hF]-NH2) | 0.79 | 9.7 |
| CC[C@H](C)[C@H](NC(=O)[C@H](CCC(=O)O)NC(=O)C(C)(C)NC(=O)[C@@H](NC(=O)[C@H]1CCC[C@@H]1N)C(C)C)C(=O)N[C@@H](CCC(N)=O)C(=O)N[C@H]1CCC[C@@H]1C(=O)N[C@@H](CCSC)C(=O)N[C@@H](Cc1cnc[nH]1)C(=O)N[C@@H](CCC(N)=O)C(=O)N[C@@H](CCCCNC(=N)N)C(=O)N[C@@H](C)C(=O)N[C@@H](CCCCN)C(=O)N[C@H](CC(=O)N[C@@H](CC(C)C)C(=O)N[C@@H](CC(N)=O)C(=O)N[C@@H](CO)C(=O)N[C@@H](CCSC)CC(=O)N[C@@H](CCCNC(=N)N)C(=O)N[C@@H](CCCNC(=N)N)C(=O)N[C@H](C(=O)N[C@@H](CCC(=O)O)CC(=O)N[C@@H](Cc1c[nH]c2ccccc12)C(=O)N[C@@H](CC(C)C)C(=O)N[C@@H](CCCNC(=N)N)C(=O)N[C@@H](CCCCN)CC(=O)N[C@@H](CCCCN)C(=O)N[C@@H](CC(C)C)C(=O)N[C@@H](CCC(N)=O)C(=O)N[C@@H](CC(=O)O)CC(=O)N[C@H](C(=O)N[C@@H](Cc1cnc[nH]1)C(=O)N[C@@H](CC(N)=O)C(=O)N[C@H](CC(N)=O)Cc1ccccc1)C(C)C)C(C)C)Cc1c[nH]c2ccccc12 ({ACPC(1S,2S)}-V[Aib]EIQ[X1]MHQ[hArg]AK[β3hW]LNS[β3hM]RRV[β3hE]WLR[β3hK]KLQ[β3hD]VHN[β3hF]-NH2) | 0.83 | 10 |
